# Test system: PBMCs infected with VSV-G pseudotyped HIV virus (VSV-G/pNLG1-P2A-ΔEnv)
# Assay: cells
# Type: cell-based, human
# Conditions: Homo sapiens, PBMC, read-out: TACK EC50
row,SMILES,EC50
1,"Cc1nnn(Cc2cc3c(cc2F)[C@@](C#CC2CC2)(C(F)(F)F)NC(=O)N3)n1 [Example 118, (S)-4-(cyclopropylethynyl)-6-fluoro-7-((5-methyl-2H-tetrazol-2-yl)methyl)-4-(trifluoromethyl)-3,4-dihydroquinazolin-2(1H)-one]",36.4 nM
2,"CC(F)(F)[C@@]1(C#CC2CC2)NC(=O)Nc2cc(Cn3nnc4ccccc43)c(F)cc21 [Example 92, (S)-7-((1H-benzo[d][1,2,3]triazol-1-yl)methyl)-4-(cyclopropylethynyl)-4-(1,1-difluoroethyl)-6-fluoro-3,4-dihydroquinazolin-2(1H)-one]",10.6 nM
3,"COc1ncn(Cc2cc3c(cc2F)[C@@](C#CC2CC2)(C(C)(F)F)NC(=O)N3)n1 [Example 1, (S)-4-(cyclopropylethynyl)-4-(1,1-difluoroethyl)-6-fluoro-7-((3-methoxy-1H-1,2,4-triazol-1-yl)methyl)-3,4-dihydroquinazolin-2(1H)-one]",14.6 nM
4,"Nc1ncn(Cc2cc3c(cc2F)[C@@](C#CC2CC2)(C(F)(F)F)NC(=O)N3)n1 (single isomer, unassigned) [Example 107]",17.4 nM
5,"COc1nn(Cc2cc3c(cc2F)[C@@](C#CC2CC2)(C(C)(F)F)NC(=O)N3)cc1Cl [Example 95, (S)-7-((4-chloro-3-methoxy-1H-pyrazol-1-yl)methyl)-4-(cyclopropylethynyl)-4-(1,1-difluoroethyl)-6-fluoro-3,4-dihydroquinazolin-2(1H)-one]",24.1 nM
6,"O=C1Nc2cc(Cn3ccc4c3CCNC4=O)c(F)cc2[C@@](C#CC2CC2)(C(F)(F)F)N1 [Example 98, (S)-4-(cyclopropylethynyl)-6-fluoro-7-((4-oxo-4,5,6,7-tetrahydro-1H-pyrrolo[3,2-c]pyridin-1-yl)methyl)-4-(trifluoromethyl)-3,4-dihydroquinazolin-2(1H)-one]",65.4 nM
7,"O=C1Nc2cc(CN3C(=O)CNC3=O)c(F)cc2[C@@](C#CC2CC2)(C(F)(F)F)N1 [Example 29, (S)-3-((4-(cyclopropylethynyl)-6-fluoro-2-oxo-4-(trifluoromethyl)-1,2,3,4-tetrahydroquinazolin-7-yl)methyl)imidazolidine-2,4-dione]",27.4 nM
8,"CC(F)(F)[C@@]1(C#CC2CC2)NC(=O)Nc2cc(Cn3cc(F)cn3)c(F)cc21 [Example 15, (S)-4-(cyclopropylethynyl)-4-(1,1-difluoroethyl)-6-fluoro-7-((4-fluoro-1H-pyrazol-1-yl)methyl)-3,4-dihydroquinazolin-2(1H)-one]",27.3 nM
9,"Cc1nn(C)c(=O)n1Cc1cc2c(cc1F)[C@@](C#CC1CC1)(C(F)(F)F)NC(=O)N2 [Example 32, (S)-4-(cyclopropylethynyl)-7-((1,3-dimethyl-5-oxo-1,5-dihydro-4H-1,2,4-triazol-4-yl)methyl)-6-fluoro-4-(trifluoromethyl)-3,4-dihydroquinazolin-2(1H)-one]",14.4 nM
10,"CC(F)(F)[C@@]1(C#CC2CC2)NC(=O)Nc2cc(Cn3cc4ccccc4n3)c(F)cc21 [Example 90, (S)-7-((2H-indazol-2-yl)methyl)-4-(cyclopropylethynyl)-4-(1,1-difluoroethyl)-6-fluoro-3,4-dihydroquinazolin-2(1H)-one]",9.4 nM
11,"Cc1nn(C)c(=O)n1Cc1cc2c(cc1F)[C@@](C#CC1CC1)(C(C)(F)F)NC(=O)N2 [Example 108, (S)-4-(cyclopropylethynyl)-4-(1,1-difluoroethyl)-7-((1,3-dimethyl-5-oxo-1,5-dihydro-4H-1,2,4-triazol-4-yl)methyl)-6-fluoro-3,4-dihydroquinazolin-2(1H)-one]",18.3 nM
12,"O=C1Nc2cc(Cn3c(=O)[nH]c4ccncc43)c(F)cc2[C@@](C#CC2CC2)(C(F)(F)F)N1 [Example 41, (S)-4-(cyclopropylethynyl)-6-fluoro-7-((2-oxo-1,2-dihydro-3H-imidazo[4,5-c]pyridin-3-yl)methyl)-4-(trifluoromethyl)-3,4-dihydroquinazolin-2(1H)-one]",26.1 nM
13,"O=C1Nc2cc(Cn3c(C4CC4)n[nH]c3=O)c(F)cc2[C@@](C#CC2CC2)(C(F)(F)F)N1 [Example 37, (S)-7-((3-cyclopropyl-5-oxo-1,5-dihydro-4H-1,2,4-triazol-4-yl)methyl)-4-(cyclopropylethynyl)-6-fluoro-4-(trifluoromethyl)-3,4-dihydroquinazolin-2(1H)-one]",42.9 nM
14,"Cn1ccnc1C(=O)NCc1cc2c(cc1F)[C@@](C#CC1CC1)(C(C)(F)F)NC(=O)N2 [Example 82, (S)-N-((4-(cyclopropylethynyl)-4-(1,1-difluoroethyl)-6-fluoro-2-oxo-1,2,3,4-tetrahydroquinazolin-7-yl)methyl)-1-methyl-1H-imidazole-2-carboxamide]",154 nM
15,"CC(F)(F)[C@@]1(C#CC2CC2)NC(=O)Nc2cc(Cn3cc(Cl)cn3)c(F)cc21 [Example 16, (S)-7-((4-chloro-1H-pyrazol-1-yl)methyl)-4-(cyclopropylethynyl)-4-(1,1-difluoroethyl)-6-fluoro-3,4-dihydroquinazolin-2(1H)-one]",32.4 nM
16,"COCc1cc(Cl)n(Cc2cc3c(cc2F)[C@@](C#CC2CC2)(C(C)(F)F)NC(=O)N3)n1 [Example 18, (S)-7-((5-chloro-3-(methoxymethyl)-1H-pyrazol-1-yl)methyl)-4-(cyclopropylethynyl)-4-(1,1-difluoroethyl)-6-fluoro-3,4-dihydroquinazolin-2(1H)-one]",46.6 nM
17,"Cc1nc(N)sc1C(=O)NCc1cc2c(cc1F)[C@@](C#CC1CC1)(C(F)(F)F)NC(=O)N2 [Example 84, (S)-2-amino-N-((4-(cyclopropylethynyl)-6-fluoro-2-oxo-4-(trifluoromethyl)-1,2,3,4-tetrahydroquinazolin-7-yl)methyl)-4-methylthiazole-5-carboxamide]",273 nM
18,"COc1cnn(Cc2cc3c(cc2F)[C@@](C#CC2CC2)(C(C)(F)F)NC(=O)N3)c1 [Example 3, (S)-4-(cyclopropylethynyl)-4-(1,1-difluoroethyl)-6-fluoro-7-((4-methoxy-1H-pyrazol-1-yl)methyl)-3,4-dihydroquinazolin-2(1H)-one]",14.4 nM
19,"O=C1Nc2cc(Cn3c(=O)[nH]c4ccccc43)c(F)cc2[C@@](C#CC2CC2)(C(F)(F)F)N1 [Example 24, (S)-4-(cyclopropylethynyl)-6-fluoro-7-((2-oxo-2,3-dihydro-1H-benzo[d]imidazol-1-yl)methyl)-4-(trifluoromethyl)-3,4-dihydroquinazolin-2(1H)-one]",32.5 nM
20,"CC(F)(F)[C@@]1(C#CC2CC2)NC(=O)Nc2cc(Cn3ccc(CO)n3)c(Cl)cc21 [Example 48, (S)-6-chloro-4-(cyclopropylethynyl)-4-(1,1-difluoroethyl)-7-((3-(hydroxymethyl)-1H-pyrazol-1-yl)methyl)-3,4-dihydroquinazolin-2(1H)-one]",29.6 nM
21,"COCc1cnn(Cc2cc3c(cc2F)[C@@](C#CC2CC2)(C(C)(F)F)NC(=O)N3)c1 [Example 64, (S)-4-(cyclopropylethynyl)-4-(1,1-difluoroethyl)-6-fluoro-7-((4-(methoxymethyl)-1H-pyrazol-1-yl)methyl)-3,4-dihydroquinazolin-2(1H)-one]",34 nM
22,"O=C1Nc2cc(CNC(=O)c3ncc[nH]3)c(F)cc2[C@@](C#CC2CC2)(C(F)(F)F)N1 [Example 80, (S)-N-((4-(cyclopropylethynyl)-6-fluoro-2-oxo-4-(trifluoromethyl)-1,2,3,4-tetrahydroquinazolin-7-yl)methyl)-1H-imidazole-2-carboxamide]",9.8 nM
23,"O=C1Nc2cc(Cn3c(=O)oc4ccccc43)c(F)cc2[C@@](C#CC2CC2)(C(F)(F)F)N1 [Example 13, (S)-3-((4-(cyclopropylethynyl)-6-fluoro-2-oxo-4-(trifluoromethyl)-1,2,3,4-tetrahydroquinazolin-7-yl)methyl)benzo[d]oxazol-2(3H)-one]",14.3 nM
24,"CC(F)(F)[C@@]1(C#CC2CC2)NC(=O)Nc2cc(Cn3cc(CCO)cn3)c(F)cc21 [Example 70, (S)-4-(cyclopropylethynyl)-4-(1,1-difluoroethyl)-6-fluoro-7-((4-(2-hydroxyethyl)-1H-pyrazol-1-yl)methyl)-3,4-dihydroquinazolin-2(1H)-one]",50.7 nM
25,"CN1C(=O)Nc2cc(CN3C(=O)CNC3=O)c(F)cc2[C@@]1(C#CC1CC1)C(F)(F)F [Example 42, (S)-3-((4-(cyclopropylethynyl)-6-fluoro-3-methyl-2-oxo-4-(trifluoromethyl)-1,2,3,4-tetrahydroquinazolin-7-yl)methyl)imidazolidine-2,4-dione]",38.8 nM
26,"COCc1ccn(Cc2cc3c(cc2F)[C@@](C#CC2CC2)(C(C)(F)F)NC(=O)N3)n1 [Example 54, (S)-4-(cyclopropylethynyl)-4-(1,1-difluoroethyl)-6-fluoro-7-((3-(methoxymethyl)-1H-pyrazol-1-yl)methyl)-3,4-dihydroquinazolin-2(1H)-one]",33.5 nM
27,"Cc1cn(Cc2cc3c(cc2F)[C@@](C#CC2CC2)(C(C)(F)F)NC(=O)N3)nc1N [Example 45, (S)-7-((3-amino-4-methyl-1H-pyrazol-1-yl)methyl)-4-(cyclopropylethynyl)-4-(1,1-difluoroethyl)-6-fluoro-3,4-dihydroquinazolin-2(1H)-one]",13.1 nM

# Same assay, conditions: read-out: TACK EC50
row,SMILES,EC50
1,"CC(O)c1ccn(Cc2cc3c(cc2F)[C@@](C#CC2CC2)(C(C)(F)F)NC(=O)N3)n1 (single isomer, unassigned) [Example 73, (S)-4-(cyclopropylethynyl)-4-(1,1-difluoroethyl)-6-fluoro-7-((3-((R or S)-1-hydroxyethyl)-1H-pyrazol-1-yl)methyl)-3,4-dihydroquinazolin-2(1H)-one]",24.5 nM
2,"COC(C)c1ccn(Cc2cc3c(cc2F)[C@@](C#CC2CC2)(C(C)(F)F)NC(=O)N3)n1 (single isomer, unassigned) [Example 58, (S)-4-(cyclopropylethynyl)-4-(1,1-difluoroethyl)-6-fluoro-7-((3-((R or S)-1-methoxyethyl)-1H-pyrazol-1-yl)methyl)-3,4-dihydroquinazolin-2(1H)-one]",25 nM
